{"source": "patent US10111890B2", "about": "“9-aminomethyl minocycline compounds and uses thereof” (Paratek Pharmaceuticals, Inc., priority 2016, dated 2018)", "key": {"[1]": {"system": "ABSSSI known or suspected to be due to Gram-positive pathogens", "assay": "Phase 3 oral omadacycline vs oral linezolid in ABSSSI: Early Clinical Response 48-72 hours after first dose", "assay_type": "in vivo, human", "settings": "for Early Clinical Success, %: micro-mITT, % of N1; for Difference (95% CI) in Early Clinical Success rate: omadacycline minus linezolid"}, "[2]": {"system": "ABSSSI", "assay": "Earlier Phase 3 i.v.-to-oral omadacycline vs linezolid study in ABSSSI: clinical success", "assay_type": "in vivo, human", "settings": "i.v. with switch to oral"}, "[3]": {"settings": "human, in vivo"}, "[4]": {"settings": "48-72 hours after first dose, mITT population"}, "[5]": {"settings": "Cellulitis/erysipelas, actual type, 48-72 hours, mITT"}, "[6]": {"settings": "Cellulitis/erysipelas, as randomized, 48-72 hours, mITT"}, "[7]": {"settings": "Major Abscess, actual type, 48-72 hours, mITT"}, "[8]": {"settings": "Major Abscess, as randomized, 48-72 hours, mITT"}, "[9]": {"settings": "Wound Infection, actual type, 48-72 hours, mITT"}, "[10]": {"settings": "Wound Infection, as randomized, 48-72 hours, mITT"}}, "data": [{"smiles": "CN(C)c1cc(CNCC(C)(C)C)c(O)c2c1C[C@H]1C[C@H]3[C@H](N(C)C)C(O)=C(C(N)=O)C(=O)[C@@]3(O)C(O)=C1C2=O", "note": "[Omadacycline, 9-[(2,2-dimethyl-propylamino)-methyl]-minocycline]", "values": [{"measurement": "Early Clinical Response: Clinical Failure", "setting": "[1]; [4]", "result": "26 (7.2) n (%)"}, {"measurement": "Early Clinical Response: Clinical Failure or Indeterminate", "setting": "[1]; [4]", "result": "45 (12.5) n (%)"}, {"measurement": "Early Clinical Response: Indeterminate", "setting": "[1]; [4]", "result": "19 (5.3) n (%)"}, {"measurement": "Early Clinical Response: Clinical Success", "setting": "[1]; 48-72 hours after first dose, mITT population (N = 360 per arm)", "result": "315 (87.5) n (%)"}, {"measurement": "Early Clinical Response: Clinical Success", "setting": "[1]; Cellulitis/erysipelas, actual type of infection, 48-72 hours, mITT", "result": "68 (79.1) n (%)"}, {"measurement": "Early Clinical Response: Clinical Failure", "setting": "[1]; [5]", "result": "8 (9.3) n (%)"}, {"measurement": "Early Clinical Response: Clinical Failure or Indeterminate", "setting": "[1]; [5]", "result": "18 (20.9) n (%)"}, {"measurement": "Early Clinical Response: Indeterminate", "setting": "[1]; [5]", "result": "10 (11.6) n (%)"}, {"measurement": "Early Clinical Response: Clinical Failure", "setting": "[1]; [6]", "result": "8 (9.8) n (%)"}, {"measurement": "Early Clinical Response: Clinical Failure or Indeterminate", "setting": "[1]; [6]", "result": "17 (20.7) n (%)"}, {"measurement": "Early Clinical Response: Indeterminate", "setting": "[1]; [6]", "result": "9 (11.0) n (%)"}, {"measurement": "Early Clinical Response: Clinical Success", "setting": "[1]; Cellulitis/erysipelas, type of infection as randomized, 48-72 hours, mITT", "result": "65 (79.3) n (%)"}, {"measurement": "Early Clinical Response: Clinical Success", "setting": "[1]; Major Abscess, actual type of infection, 48-72 hours, mITT", "result": "60 (93.8) n (%)"}, {"measurement": "Early Clinical Response: Clinical Failure", "setting": "[1]; [7]", "result": "1 (1.6) n (%)"}, {"measurement": "Early Clinical Response: Clinical Failure or Indeterminate", "setting": "[1]; [7]", "result": "4 (6.3) n (%)"}, {"measurement": "Early Clinical Response: Indeterminate", "setting": "[1]; [7]", "result": "3 (4.7) n (%)"}, {"measurement": "Early Clinical Response: Clinical Failure", "setting": "[1]; [8]", "result": "1 (1.6) n (%)"}, {"measurement": "Early Clinical Response: Clinical Failure or Indeterminate", "setting": "[1]; [8]", "result": "4 (6.3) n (%)"}, {"measurement": "Early Clinical Response: Indeterminate", "setting": "[1]; [8]", "result": "3 (4.7) n (%)"}, {"measurement": "Early Clinical Response: Clinical Success", "setting": "[1]; Major Abscess, type of infection as randomized, 48-72 hours, mITT", "result": "60 (93.8) n (%)"}, {"measurement": "Early Clinical Response: Clinical Success", "setting": "[1]; Wound Infection, actual type of infection, 48-72 hours, mITT", "result": "187 (89.0) n (%)"}, {"measurement": "Early Clinical Response: Clinical Failure", "setting": "[1]; [9]", "result": "17 (8.1) n (%)"}, {"measurement": "Early Clinical Response: Clinical Failure or Indeterminate", "setting": "[1]; [9]", "result": "23 (11.0) n (%)"}, {"measurement": "Early Clinical Response: Indeterminate", "setting": "[1]; [9]", "result": "6 (2.9) n (%)"}, {"measurement": "Early Clinical Response: Clinical Failure", "setting": "[1]; [10]", "result": "17 (7.9) n (%)"}, {"measurement": "Early Clinical Response: Clinical Failure or Indeterminate", "setting": "[1]; [10]", "result": "24 (11.2) n (%)"}, {"measurement": "Early Clinical Response: Indeterminate", "setting": "[1]; [10]", "result": "7 (3.3) n (%)"}, {"measurement": "Early Clinical Response: Clinical Success", "setting": "[1]; Wound Infection, type of infection as randomized, 48-72 hours, mITT", "result": "190 (88.8) n (%)"}, {"measurement": "Early Clinical Success, %", "setting": "[1]; baseline pathogen Clostridium perfringens, 48-72 hours after first dose", "result": "(100.0) %"}, {"measurement": "Early Clinical Success, %", "setting": "[1]; baseline pathogen Enterobacter cloacae, 48-72 hours after first dose", "result": "(100.0) %"}, {"measurement": "Early Clinical Success, %", "setting": "[1]; baseline pathogen Enterococcus faecalis VSE, 48-72 hours after first dose", "result": "(85.7) %"}, {"measurement": "Early Clinical Success, %", "setting": "[1]; baseline pathogen Enterococcus faecalis, 48-72 hours after first dose", "result": "(87.5) %"}, {"measurement": "Early Clinical Success, %", "setting": "[1]; baseline pathogen Enterococcus faecium VSE, 48-72 hours after first dose", "result": "(100.0) %"}, {"measurement": "Early Clinical Success, %", "setting": "[1]; baseline pathogen Enterococcus faecium, 48-72 hours after first dose", "result": "(100.0) %"}, {"measurement": "Early Clinical Success, %", "setting": "[1]; baseline pathogen Escherichia coli, 48-72 hours after first dose", "result": "(100.0) %"}, {"measurement": "Early Clinical Success, %", "setting": "[1]; baseline pathogen Finegoldia magna, 48-72 hours after first dose", "result": "(66.7) %"}, {"measurement": "Early Clinical Success, %", "setting": "[1]; baseline pathogen Klebsiella pneumoniae, 48-72 hours after first dose", "result": "(80.0) %"}, {"measurement": "Early Clinical Success, %", "setting": "[1]; baseline pathogen MRSA, 48-72 hours after first dose", "result": "(93.3) %"}, {"measurement": "Early Clinical Success, %", "setting": "[1]; baseline pathogen MSSA, 48-72 hours after first dose", "result": "(84.2) %"}, {"measurement": "Early Clinical Success, %", "setting": "[1]; baseline pathogen Prevotella denticola, 48-72 hours after first dose", "result": "(100.0) %"}, {"measurement": "Early Clinical Success, %", "setting": "[1]; baseline pathogen Prevotella melaninogenica, 48-72 hours after first dose", "result": "(100.0) %"}, {"measurement": "Early Clinical Success, %", "setting": "[1]; baseline pathogen Staphylococcus aureus, 48-72 hours after first dose", "result": "(88.2) %"}, {"measurement": "Early Clinical Success, %", "setting": "[1]; baseline pathogen Staphylococcus lugdunensis, 48-72 hours after first dose", "result": "(80.0) %"}, {"measurement": "Early Clinical Success, %", "setting": "[1]; baseline pathogen Streptococcus agalactiae, 48-72 hours after first dose", "result": "(50.0) %"}, {"measurement": "Early Clinical Success, %", "setting": "[1]; baseline pathogen Streptococcus anginosus group, 48-72 hours after first dose", "result": "(94.7) %"}, {"measurement": "Early Clinical Success, %", "setting": "[1]; baseline pathogen Streptococcus anginosus, 48-72 hours after first dose", "result": "(100.0) %"}, {"measurement": "Early Clinical Success, %", "setting": "[1]; baseline pathogen Streptococcus constellatus, 48-72 hours after first dose", "result": "(88.9) %"}, {"measurement": "Early Clinical Success, %", "setting": "[1]; baseline pathogen Streptococcus intermedius, 48-72 hours after first dose", "result": "(91.3) %"}, {"measurement": "Early Clinical Success, %", "setting": "[1]; baseline pathogen Streptococcus mitis, 48-72 hours after first dose", "result": "(100.0) %"}, {"measurement": "Early Clinical Success, %", "setting": "[1]; baseline pathogen Streptococcus pyogenes, 48-72 hours after first dose", "result": "(82.8) %"}, {"measurement": "Early Clinical Success, %", "setting": "[1]; baseline pathogen Streptococcus viridans group, 48-72 hours after first dose", "result": "(100.0) %"}, {"measurement": "Difference (95% CI) in Early Clinical Success rate", "setting": "[1]; Cellulitis/erysipelas, actual type, mITT", "result": "1.7 (−10.8, 14.3)"}, {"measurement": "Difference (95% CI) in Early Clinical Success rate", "setting": "[1]; Cellulitis/erysipelas, as randomized, mITT", "result": "1.9 (−10.8, 14.5)"}, {"measurement": "Difference (95% CI) in Early Clinical Success rate", "setting": "[1]; Major Abscess, actual type, mITT", "result": "5.0 (−5.4, 16.2)"}, {"measurement": "Difference (95% CI) in Early Clinical Success rate", "setting": "[1]; Major Abscess, as randomized, mITT", "result": "5.0 (−5.4, 16.2)"}, {"measurement": "Difference (95% CI) in Early Clinical Success rate", "setting": "[1]; Wound Infection, actual type, mITT", "result": "6.3 (−0.3, 13.1)"}, {"measurement": "Difference (95% CI) in Early Clinical Success rate", "setting": "[1]; Wound Infection, as randomized, mITT", "result": "6.1 (−0.6, 12.8)"}, {"measurement": "clinical success based on investigator's assessment of clinical response", "setting": "[2]; 7-14 days after the last dose", "result": 86.1, "unit": "%"}, {"measurement": "clinical success based on a reduction of lesion size", "setting": "[2]; 48-72 hours after the first dose, FDA primary analysis population (N=627)", "result": 84.8, "unit": "%"}, {"measurement": "non-inferiority to linezolid", "setting": "[2]; 7-14 days", "result": "non-inferior"}, {"measurement": "discontinuation due to TEAE, % of subjects", "setting": "[3]", "result": 1.9, "unit": "%"}, {"measurement": "serious TEAEs, % of subjects", "setting": "[3]", "result": 3.4, "unit": "%"}, {"measurement": "treatment-emergent adverse events (TEAEs), % of subjects", "setting": "[3]", "result": 48.3, "unit": "%"}]}]}
